Data: article PMC10900215 (JACS Au, 2024)
Where “and” joins values, the source holds several entries; their conditions need not be identical. Equal values may be shown once.

Assays:
METTL14 = test: Cellular degradation assay (Western blot), METTL14 in MOLM-13; type: cell-based, human; conditions: MOLM-13, 24 h, 2 μM compound
Experimental: (§1) MOLM-13, NOMO-1, THP-1, Kasumi-1, PC3, and DU145 cell lines were obtained from DSMZ-German Collection of Microorganisms and Cell Cultures GmbH. Cells were cultured in RPMI 1640 medium (11875093, Thermo Fisher Scientific) containing 10% FBS (16140071, Thermo Fisher Scientific) and 1% penicillin-streptomycin (15140122, Thermo Fisher Scientific) in 5% CO2 at 37 °C in a humidified incubator, with maintained cell densities at 0.5–1 × 10^6 cells/mL. All cell lines were tested negative for mycoplasma contamination (PCR-based assay by Microsynth, Switzerland).
(§2) METTL3 (and METTL14) protein degradation was monitored by Western blot. Cells were treated with the indicated concentration of PROTACs or DMSO control (0.1% (v/v)) for 24h, 37 °C with 5% CO2. Samples were then collected and lysed with RIPA buffer with added protease inhibitors (11697498001, Roche). After SDS-PAGE, proteins were transferred to a nitrocellulose membrane, blocked (with 5% milk, 0.5% BSA in TBST buffer), and incubated overnight with primary antibodies. The following antibodies were used: GAPDH (no. 2118, Cell Signaling, 1:4000), β-actin (ab8226, Abcam, 1:2000), METTL3 (ab195352, Abcam, 1:1000), and METTL14 (ab220031, Abcam, 1:1000). Membranes were scanned using an LI-COR Odyssey DLx imager after incubation with appropriate secondary antibodies (antimouse IgG IRDye 680RD (926–68072, LI-COR, 1:10000) and goat anti-Rabbit IgG IRDye 800CW (926–32211, LI-COR, 1:10000)). Densitometry was performed in Image Studio Lite software and analyzed in GraphPad Prism 9.

METTL3 = target: T1, METTL3 (Homo sapiens, UniProt Q86U44); test: Cellular degradation assay (Western blot), METTL3 in MOLM-13; type: cell-based; conditions: MOLM-13, 24 h, 2 μM compound
T1 construct: METTL3–14 degradation up to 70% of the endogenous level; endogenous in cells; host or cells: MOLM-13, PC3, DU145
T1 sequence (Q86U44 2-580 limits assumed): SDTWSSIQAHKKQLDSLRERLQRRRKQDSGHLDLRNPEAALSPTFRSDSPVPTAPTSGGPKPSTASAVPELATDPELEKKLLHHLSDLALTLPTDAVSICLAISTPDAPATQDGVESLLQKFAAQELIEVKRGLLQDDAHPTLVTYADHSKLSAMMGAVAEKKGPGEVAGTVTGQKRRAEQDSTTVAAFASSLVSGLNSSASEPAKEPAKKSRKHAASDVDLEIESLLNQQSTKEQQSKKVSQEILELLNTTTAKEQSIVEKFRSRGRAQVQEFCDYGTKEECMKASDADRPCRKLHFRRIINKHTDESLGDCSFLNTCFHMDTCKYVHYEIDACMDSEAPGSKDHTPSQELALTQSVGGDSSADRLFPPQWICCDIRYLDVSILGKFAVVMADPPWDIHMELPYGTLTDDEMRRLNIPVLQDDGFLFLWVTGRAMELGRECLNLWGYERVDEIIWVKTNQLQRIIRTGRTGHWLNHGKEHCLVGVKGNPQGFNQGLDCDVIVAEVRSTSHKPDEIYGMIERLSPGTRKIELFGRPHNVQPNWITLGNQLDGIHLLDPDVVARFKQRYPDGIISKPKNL
T1 sequence (Q9HCE5 whole entry partner): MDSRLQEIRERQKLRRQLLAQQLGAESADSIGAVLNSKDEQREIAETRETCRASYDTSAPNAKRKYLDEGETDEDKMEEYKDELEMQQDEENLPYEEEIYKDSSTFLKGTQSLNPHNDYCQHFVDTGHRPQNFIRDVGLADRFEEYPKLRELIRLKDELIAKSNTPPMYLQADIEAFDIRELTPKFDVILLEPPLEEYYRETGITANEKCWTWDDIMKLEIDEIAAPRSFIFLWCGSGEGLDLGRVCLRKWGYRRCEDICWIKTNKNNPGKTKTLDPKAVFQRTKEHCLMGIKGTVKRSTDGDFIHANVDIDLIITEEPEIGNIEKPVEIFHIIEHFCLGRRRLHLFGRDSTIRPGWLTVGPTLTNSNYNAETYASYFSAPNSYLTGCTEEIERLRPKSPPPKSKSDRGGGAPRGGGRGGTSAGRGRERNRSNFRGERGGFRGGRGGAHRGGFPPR
Experimental: as §1, §2

[1] = Cell viability assay (CellTiter-Glo) on MOLM-13; type: cell-based; conditions: human, MOLM-13 cells, average of two biological replicates; for viability at 72 h, […]: 2.5 µM
Experimental: as §1
Cell viability was determined using a CellTiter-Glo luminescent cell viability assay (Promega) based on the detection of ATP according to the manufacturer’s instructions. 100 μL of the reagent was added to each well and incubated for 10 min at room temperature. […] Background luminescence value was obtained from wells containing the CellTiter-Glo reagent and medium without cells. The resulting data was analyzed in GraphPad Prism 9.

METTL3-14 [2] = target: T2, METTL3-14 (Homo sapiens, UniProt Q86U44); test: Cellular degradation assay (Western blot), METTL3 and/or METTL14 (METTL3–14) in MOLM-13; type: cell-based; parameters: METTL3–14 degradation up to 70% of the endogenous level; endogenous in cells; host or cells: MOLM-13, KASUMI-1, THP-1, NOMO-1; conditions: MOLM-13, 2 μM, 24 h, Western blot
Experimental: MOLM-13, NOMO-1, THP-1, Kasumi-1, PC3, and DU145 cell lines were obtained from DSMZ-German Collection of Microorganisms and Cell Cultures GmbH. […] All cell lines were tested negative for mycoplasma contamination (PCR-based assay by Microsynth, Switzerland).
METTL3 (and METTL14) protein degradation was monitored by Western blot. Cells were treated with the indicated concentration of PROTACs or DMSO control (0.1% (v/v)) for 24h, 37 °C with 5% CO2. […] After SDS-PAGE, proteins were transferred to a nitrocellulose membrane, blocked (with 5% milk, 0.5% BSA in TBST buffer), and incubated overnight with primary antibodies. […] Densitometry was performed in Image Studio Lite software and analyzed in GraphPad Prism 9.
Target sequence in this assay (Q86U44 2-580 limits assumed): as the sequence (Q86U44 2-580 limits assumed) above
Target sequence in this assay (Q9HCE5 whole entry partner): as the sequence (Q9HCE5 whole entry partner) above

[3] = target: T3, ternary complex CRBN/PROTAC/METTL3–14 (Homo sapiens, UniProt Q86U44+Q96SW2); test: FRET-based ternary complex formation assay (TCFA); type: binding; conditions: for ECmax (nM) ± SD: PROTAC concentration at the maximum of the signal in the TCFA; for TCFA amplitude (mean ± SEM): Hook curve amplitude, fraction of the maximum of compound 16; for ECmax: TCFA, peak of the Hook curve
T3 construct: methyltransferase domains (MTD) of METTL3 (residues 354–580); His6 (N, cleaved yes); made in house; host or cells: METTL3-MTD/METTL14-MTD: baculovirus/Sf9; CRBN-TBD: E. coli Rosetta (DE3), co-expressed with BirA
T3 sequence (Q86U44 354-580): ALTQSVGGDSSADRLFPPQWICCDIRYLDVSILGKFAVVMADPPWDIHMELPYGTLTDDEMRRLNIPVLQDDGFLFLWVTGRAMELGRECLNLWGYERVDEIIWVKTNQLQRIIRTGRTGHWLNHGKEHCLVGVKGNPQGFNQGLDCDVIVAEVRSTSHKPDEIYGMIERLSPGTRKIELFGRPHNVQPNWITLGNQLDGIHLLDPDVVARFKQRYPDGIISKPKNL
T3 sequence (Q9HCE5 107-395 partner limits assumed): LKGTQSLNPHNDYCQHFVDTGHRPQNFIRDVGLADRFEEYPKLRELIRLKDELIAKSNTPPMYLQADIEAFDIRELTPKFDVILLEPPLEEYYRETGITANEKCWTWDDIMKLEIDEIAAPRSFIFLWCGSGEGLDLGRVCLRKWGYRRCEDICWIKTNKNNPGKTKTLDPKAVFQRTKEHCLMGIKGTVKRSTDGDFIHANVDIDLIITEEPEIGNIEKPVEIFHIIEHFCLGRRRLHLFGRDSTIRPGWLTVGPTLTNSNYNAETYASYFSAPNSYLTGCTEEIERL
T3 sequence (Q96SW2 318-442): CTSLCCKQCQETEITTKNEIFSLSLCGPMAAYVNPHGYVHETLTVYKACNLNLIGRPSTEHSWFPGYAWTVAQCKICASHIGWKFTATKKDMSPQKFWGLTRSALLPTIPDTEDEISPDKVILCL
Experimental: For protein expression, suspension cultures of Sf9 cells in […] medium (Thermo Fisher) were infected at a density of 2 × 10^6 mL^–1. […] The complex was further purified by size exclusion chromatography using a Superdex 200 Increase 10/300 GL column (Cytiva) in 20 mM Tris-Cl, pH 8.0, and 200 mM KCl. The complex was aliquoted and flash-frozen in liquid nitrogen and stored at −80 °C until further use.
Ternary complex formation between the PROTACs, METTL3, and CRBN was quantified by a homogeneous time-resolved fluorescence (HTRF)-based enzyme assay. […] Curves of titrations with the PROTACs were plotted in GraphPad Prism 9.5.1 and fitted with a Gaussian function, if appropriate. […] CRBN^TBD-Avi(biotin) was used at a final concentration of 10 nM. […] Anti-GST Eu^3+-labeled antibody (Cisbio, 61GSTKLB) was used at a final concentration of 0.8 nM. The final reaction volume was 20 μL in 50 mM HEPES (pH 7.5), 150 mM NaCl, 0.1% BSA, 100 mM KF. […] The ratio of the emissions [drawing 1] was considered for further analysis. […] The concentrations resulting in the maximum signal (ECmax) and the amplitudes of the Hook curves were determined from the parameters of the Gaussian fit (if appropriate) or as the coordinates of the data-point with the highest TR-FRET signal.
For the ternary complex formation assay (TCFA), one of the protein partners must have a GST-tag and the other a biotin-tag.

METTL3-14 [4] = target: T2, METTL3-14; test: biochemical; parameters: with the full-length complex, the recombinant complex construct pFastBacDual-StrepII-GFP-TEV-METTL3-His-TEV-METTL14 was expressed; StrepII (N); GFP (N); TEV site (N); made in house; host or cells: baculovirus/Sf9 insect cells; conditions: inhibition of catalytic activity of METTL3-14, binary FRET assay
Description: For determining the half maximal inhibitory concentration (IC50) with the full-length complex, the recombinant complex construct pFastBacDual-StrepII-GFP-TEV-METTL3-His-TEV-METTL14 was expressed using the baculovirus/Sf9 insect cell expression system and purified as described previously.[21]
The inhibitory potencies of the PROTACs for METTL3 were quantified by a homogeneous time-resolved fluorescence (HTRF)-based enzyme assay as previously described.[40]
Target sequence in this assay (Q86U44 whole entry): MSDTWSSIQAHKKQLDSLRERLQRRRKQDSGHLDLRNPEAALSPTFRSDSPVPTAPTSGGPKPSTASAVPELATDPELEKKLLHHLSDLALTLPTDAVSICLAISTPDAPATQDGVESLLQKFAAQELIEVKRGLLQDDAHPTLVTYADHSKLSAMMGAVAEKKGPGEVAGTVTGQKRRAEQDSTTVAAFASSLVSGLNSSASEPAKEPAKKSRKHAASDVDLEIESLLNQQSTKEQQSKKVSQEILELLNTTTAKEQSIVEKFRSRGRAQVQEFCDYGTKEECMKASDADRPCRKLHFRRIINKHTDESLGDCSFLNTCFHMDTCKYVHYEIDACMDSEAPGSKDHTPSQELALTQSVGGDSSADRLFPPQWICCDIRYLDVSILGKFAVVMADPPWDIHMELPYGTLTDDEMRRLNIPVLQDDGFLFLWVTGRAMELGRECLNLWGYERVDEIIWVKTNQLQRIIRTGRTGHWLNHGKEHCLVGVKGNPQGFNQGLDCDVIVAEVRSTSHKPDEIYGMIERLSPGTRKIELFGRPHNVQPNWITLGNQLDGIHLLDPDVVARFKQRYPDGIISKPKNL
Target sequence in this assay (Q9HCE5 whole entry, further chain): as the sequence (Q9HCE5 whole entry partner) above

With `CC1(C)CCN(Cc2cc(F)c(N3CC(=O)NC4(CCN(c5cc(NCCN6CCN(c7cccc8c7C(=O)N(C7CCC(=O)NC7=O)C8=O)CC6)ncn5)CC4)C3)cc2F)CC1` (centres unmarked) [Compound 32] the “MOLM-13 West. blot at 24h 2 μM comp conc. Degradation (%) of METTL14” value (shortened to “MOLM-13 West. blot … (%) of METTL14”) (METTL14) was “/ (Degradation <10% or stabilization)”, the “MOLM-13 West. blot at 24h 2 μM comp conc. Degradation (%) of METTL3” value (“MOLM-13 West. blot … (%) of METTL3” for short) (METTL3) was “/ (Degradation <10% or stabilization)” and the viability at 72 h, 0.6 µM [1] was 106%. The viability at 72 h, 1.25 µM [1] was 106%, the viability at 72 h, […] [1] was 103% and the viability at 72 h, 5 µM [1] was 91.5%. For the same compound, the viability at 72 h, 10 µM [1] was 74.6%, the “degradation of METTL3 and/or METTL14” value (METTL3-14 [2]) was “inactive” and the “activity / signal in the ternary complex formation assay” value [3] was “inactive”. The “ECmax (nM) ± SD” value [3] was “– ^b”.

With `CC1(C)CCN(Cc2cc(F)c(N3CC(=O)NC4(CCN(c5cc(NCCN6CCN(C(=O)CCCCCCCNc7cccc8c7C(=O)N(C7CCC(=O)NC7=O)C8=O)CC6)ncn5)CC4)C3)cc2F)CC1` (centres unmarked) [Compound 31] the “MOLM-13 West. blot … (%) of METTL14” value (METTL14) was 55 ± 24%, the “MOLM-13 West. blot … (%) of METTL3” value (METTL3) was 49 ± 33% and the viability at 72 h, 0.6 µM [1] was 95.4%. It also gave a viability at 72 h, 1.25 µM [1] of 88.3%, a viability at 72 h, […] [1] of 88% and a viability at 72 h, 5 µM [1] of 85.2%. The viability at 72 h, 10 µM [1] was 80.2%, the “degradation of METTL3 and/or METTL14” value (METTL3-14 [2]) was no less than 50% and the “TCFA amplitude (mean ± SEM)” value [3] was 0.9 ± 0.0. The “ECmax (nM) ± SD” value [3] was 110 ± 40 nM and the ECmax [3] was “submicromolar”.

For `CC1(C)CCN(Cc2cc(F)c(N3CC(=O)NC4(CCN(c5cc(NCCN6CCN(C(=O)CCCNc7cccc8c7C(=O)N(C7CCC(=O)NC7=O)C8=O)CC6)ncn5)CC4)C3)cc2F)CC1` (centres unmarked) [Compound 29], the “MOLM-13 West. blot … (%) of METTL14” value (METTL14) was 51 ± 11%, the “MOLM-13 West. blot … (%) of METTL3” value (METTL3) was 42 ± 14% and the viability at 72 h, 0.6 µM [1] was 93.7%. The viability at 72 h, 1.25 µM [1] was 93.5%, the viability at 72 h, […] [1] was 93.4% and the viability at 72 h, 5 µM [1] was 94.5%. The viability at 72 h, 10 µM [1] was 87.4%, the “degradation of METTL3 and/or METTL14” value (METTL3-14 [2]) was no less than 50% and the “TCFA amplitude (mean ± SEM)” value [3] was 1.0 ± 0.0. The “ECmax (nM) ± SD” value [3] was 80 ± 0 nM and the ECmax [3] was “submicromolar”.

For `CC1(C)CCN(Cc2cc(F)c(N3CC(=O)NC4(CCN(c5cc(NCC6CCN(C(=O)CCCNc7ccc8c(c7)C(=O)N(C7CCC(=O)NC7=O)C8=O)CC6)ncn5)CC4)C3)cc2F)CC1` (centres unmarked) [Compound 23], the “MOLM-13 West. blot … (%) of METTL14” value (METTL14) was 57 ± 8%, the “MOLM-13 West. blot … (%) of METTL3” value (METTL3) was 50% and 50 ± 12% and the IC50 (METTL3-14 [4]) was 33 ± 12 nM. It also gave a viability at 72 h, 0.6 µM [1] of 95.3%, a viability at 72 h, 1.25 µM [1] of 93.3% and a viability at 72 h, […] [1] of 95.2%. For the same compound, the viability at 72 h, 5 µM [1] was 87.3%, the viability at 72 h, 10 µM [1] was 78.2% and the “TCFA amplitude (mean ± SEM)” value [3] was 1.0 ± 0.1. For the same compound, the “ECmax (nM) ± SD” value [3] was 160 ± 80 nM.

In the case of `CC1(C)CCN(Cc2cc(F)c(N3CC(=O)NC4(CCN(c5cc(NCc6cccc(CNC(=O)CCCCCCCCNc7cccc8c7CN(C7CCC(=O)NC7=O)C8=O)c6)ncn5)CC4)C3)cc2F)CC1` (centres unmarked) [Compound 16], the “MOLM-13 West. blot … (%) of METTL14” value (METTL14) is reported as 39 ± 13%, the “MOLM-13 West. blot … (%) of METTL3” value (METTL3) is reported as 24 ± 14% and the IC50 (METTL3-14 [4]) is reported as 67 ± 11 nM. The viability at 72 h, 10 µM [1] was 103%, the “TCFA amplitude (mean ± SEM)” value [3] was 1.0 ± 0.0 and the “ECmax (nM) ± SD” value [3] was 430 ± 180 nM.

With `CC1(C)CCN(Cc2cc(F)c(N3CC(=O)NC4(CCN(c5cc(NCc6cn(CCCCCCCCCCC(=O)Nc7cccc8c7CN(C7CCC(=O)NC7=O)C8=O)nn6)ncn5)CC4)C3)cc2F)CC1` (centres unmarked) [Compound 27] the “MOLM-13 West. blot … (%) of METTL14” value (METTL14) was “/ (Degradation <10% or stabilization)”, the “MOLM-13 West. blot … (%) of METTL3” value (METTL3) was 12% and 12 ± 43% and the IC50 (METTL3-14 [4]) was 610 ± 230 nM. It also gave a viability at 72 h, 0.6 µM [1] of 95.2%, a viability at 72 h, 1.25 µM [1] of 88.7% and a viability at 72 h, […] [1] of 92.6%. For the same compound, the viability at 72 h, 5 µM [1] was 95.5%, the viability at 72 h, 10 µM [1] was 90.9% and the “TCFA amplitude (mean ± SEM)” value [3] was 0.7 ± 0.0. The “ECmax (nM) ± SD” value [3] was 1100 ± 330 nM.

For `CN1C(=O)CCC(N2C(=O)c3cccc(NCCCCCC(=O)N4CCC(CNc5cc(N6CCC7(CC6)CN(c6cc(F)c(CN8CCC(C)(C)CC8)cc6F)CC(=O)N7)ncn5)CC4)c3C2=O)C1=O` (centres unmarked) [me-24], the “degradation of METTL3 and/or METTL14” value (METTL3-14 [2]) was “did not show any METTL3–14 degradation”.
